Active and inactive are the calls of the source. The rule behind the calls is not given here.
Tests used:
Cnaphalocrocis medinalis [1] = assay: Reduction of egg fertility in third-instar of Cnaphalocrocis medinalis in IR20 rice plant leaf assessed as oviposition deterrence index at 6 to 12 ppm; format: functional, organism-based
Cnaphalocrocis medinalis [2] = assay: Reduction of larval normal weight gain time in third-instar of Cnaphalocrocis medinalis in IR20 rice plant leaf at 6 ppm after 25 days (reference value: 23.5 +/- 0.56 days); format: functional
Cnaphalocrocis medinalis [3] = assay: Reduction of larval weight gain in third-instar of Cnaphalocrocis medinalis in IR20 rice plant leaf at 3 ppm after 48 hr (reference value: 23.7 mg); format: functional
Cnaphalocrocis medinalis [4] = assay: Antifeedant activity against fourth-instar of Cnaphalocrocis medinalis in IR20 rice plant leaf assessed as leaf scraped at 12 ppm after 48 hr; format: functional, organism-based
Cnaphalocrocis medinalis [5] = assay: Reduction of larval normal weight gain time in third-instar of Cnaphalocrocis medinalis in IR20 rice plant leaf at 3 ppm after 25 days (reference value: 23.5 +/- 0.56 days); format: functional
Cnaphalocrocis medinalis [6] = assay: Reduction of larval weight gain in third-instar of Cnaphalocrocis medinalis in IR20 rice plant leaf at 6 ppm after 48 hr (reference value: 23.7 mg); format: functional
Cnaphalocrocis medinalis [7] = assay: Reduction of larval weight gain in third-instar of Cnaphalocrocis medinalis in IR20 rice plant leaf at 12 ppm after 48 hr (reference value: 23.7 mg); format: functional
Cnaphalocrocis medinalis [8] = assay: Antifeedant activity against fourth-instar of Cnaphalocrocis medinalis in IR20 rice plant leaf at 6 ppm after 4 days; format: functional
Cnaphalocrocis medinalis [9] = assay: Reduction of egg production in third-instar of Cnaphalocrocis medinalis in IR20 rice plant leaf assessed as oviposition deterrence index at 12 ppm relative to control; format: functional; set-up: scale not given: the % may be the effect or the level left
Cnaphalocrocis medinalis [10] = assay: Reduction of egg production in third-instar of Cnaphalocrocis medinalis in IR20 rice plant leaf assessed as oviposition deterrence index at 6 ppm relative to control; format: functional; set-up: scale not given: the % may be the effect or the level left
Cnaphalocrocis medinalis [11] = assay: Reduction of larval normal weight gain time in third-instar of Cnaphalocrocis medinalis in IR20 rice plant leaf at 12 ppm after 25 days (reference value: 23.5 +/- 0.56 days); format: functional
Cnaphalocrocis medinalis [12] = assay: Reduction of fecundity in third-instar of Cnaphalocrocis medinalis in IR20 rice plant leaf at 6 ppm relative to control; format: functional; set-up: scale not given: the % may be the effect or the level left
Cnaphalocrocis medinalis [13] = assay: Reduction of fecundity in third-instar of Cnaphalocrocis medinalis in IR20 rice plant leaf at 25 ppm relative to control; format: functional; set-up: scale not given: the % may be the effect or the level left
Cnaphalocrocis medinalis [14] = assay: Reduction of larval weight gain in third-instar of Cnaphalocrocis medinalis in IR20 rice plant leaf at 6 ppm after 25 days; format: functional
Cnaphalocrocis medinalis [15] = assay: Antifeedant activity against fourth-instar of Cnaphalocrocis medinalis in IR20 rice plant leaf at 12 ppm after 4 days; format: functional, organism-based
Cnaphalocrocis medinalis [16] = assay: Antifeedant activity against fourth-instar of Cnaphalocrocis medinalis in IR20 rice plant leaf at 1.5 to 3 ppm after 4 days; format: functional, organism-based
Cnaphalocrocis medinalis [17] = assay: Antifeedant activity against fourt-instar of Cnaphalocrocis medinalis in IR20 rice plant leaf assessed as leaf scraped at 1.5 ppm after 24 hr; format: functional
Cnaphalocrocis medinalis [18] = assay: Antifeedant activity against fourth-instar of Cnaphalocrocis medinalis in IR20 rice plant leaf assessed as leaf scraped at 12 ppm after 24 hr; format: functional
Cnaphalocrocis medinalis [19] = assay: Reduction of fecundity in third-instar of Cnaphalocrocis medinalis in IR20 rice plant leaf at 3 ppm relative to control; format: functional; set-up: scale not given: the % may be the effect or the level left

In the case of `CC(C)=CC(=O)C[C@@H](C)[C@H]1CC[C@@]2(C)[C@@H]3CC[C@@H]4[C@@]5(CC(=O)OC[C@@]4(C)C(=O)O)C[C@@]35CC[C@]12C` [BEDDOMEILACTONE], the Activity (Cnaphalocrocis medinalis [1]) was “Active”, the Time (Cnaphalocrocis medinalis [2]) was 39.2 days and the Activity (Cnaphalocrocis medinalis [3]) was 13.6 mg. For the same molecule, the Activity (Cnaphalocrocis medinalis [4]) was “Active”, the Time (Cnaphalocrocis medinalis [5]) was 37.2 days and the Activity (Cnaphalocrocis medinalis [6]) was 10.2 mg. It also gave an Activity (Cnaphalocrocis medinalis [7]) of 7.2 mg, an Activity (Cnaphalocrocis medinalis [8]) of 80% and an Activity (Cnaphalocrocis medinalis [9]) of 83%. The Activity (Cnaphalocrocis medinalis [10]) was 60%, the Time (Cnaphalocrocis medinalis [11]) was 48.3 days and the Activity (Cnaphalocrocis medinalis [12]) was 19%. For the same molecule, the Activity (Cnaphalocrocis medinalis [13]) was 3%, the Activity (Cnaphalocrocis medinalis [14]) was 12.1 mg and the Activity (Cnaphalocrocis medinalis [15]) was “Active”. For the same molecule, the Activity (Cnaphalocrocis medinalis [16]) was “Active”, the Activity (Cnaphalocrocis medinalis [17]) was 8.97 cm2 and the Activity (Cnaphalocrocis medinalis [18]) was 0.87 cm2. It also gave an Activity (Cnaphalocrocis medinalis [19]) of 39%.
